# Like-named read-outs stand apart in the source and are kept apart here.
# Tests used:
# E. coli HH 33779 = test: MIC in vitro; assay type: cell-based; details: Escherichia coli, HH33779
# Method: (§1) The compounds of Formula I have antibacterial activity against both Gram-positive and Gram-negative organisms. Minimum inhibitory concentrations (MIC's) ranged from 0.2 to >200 μg./ml. in in vitro testing. […] Compound numbers corresponding to structures are given in the experimental section.
# Entero. cloacae HH 31254 = test: MIC in vitro; assay type: cell-based; details: for MIC: Enterobacter cloacae
# Method: as §1
# Proteus Morgani 179 = test: MIC in vitro; assay type: cell-based
# Method: as §1
# Pseudo. sp. HH 63 = test: MIC in vitro; assay type: cell-based
# Method: as §1
# S. aureus SK 23390 = test: MIC in vitro; assay type: cell-based; details: for MIC: Staphylococcus aureus
# Method: as §1
# S. villaluz = test: MIC in vitro; assay type: cell-based; details: read-out: MIC in vitro
# Method: as §1
# Salmonella ATCC 12176 = test: MIC in vitro; assay type: cell-based; details: ATCC12176
# Method: as §1
# Serra. marc. ATCC 13880 = test: MIC in vitro; assay type: cell-based
# Method: as §1
# Shigella HH 117 = test: MIC in vitro; assay type: cell-based; details: for MIC: Shigella, HH117, Shigella HH 117
# Method: as §1
# Strep. faecalis HH 34358 = test: MIC in vitro; assay type: cell-based; details: for MIC: Enterococcus faecalis, HH34358, Strep. faecalis HH 34358
# Method: as §1
# E. coli 12140 = test: In vivo mouse protection (ED50)
# E. coli SK 12140 = test: MIC in vitro; assay type: cell-based; details: Escherichia coli
# Method: as §1
# [1] = test system: Entero. aerog. ATCC 13048; test: MIC in vitro; assay type: cell-based
# Method: as §1
# Kleb. pneumo. SK 1200 = test: MIC in vitro; assay type: cell-based
# Method: as §1
# Kleb. pneumo. SK 4200 = test: MIC in vitro; assay type: cell-based; details: read-out: MIC in vitro
# Method: as §1
# S. aureus HH 127 = test: MIC in vitro; assay type: cell-based; details: Staphylococcus aureus
# Method: as §1
# Kleb. pneumo. 4200 = test: In vivo mouse protection (ED50); details: for ED50: Mus musculus
# [2] = HH31254, read-out: MIC in vitro
# [3] = SK23390, S. aureus SK 23390, read-out: MIC in vitro
# [4] = Escherichia coli, 12140, po, E. coli 12140, p.o.
# [5] = Escherichia coli, 12140, sc, E. coli 12140, s.c.
# [6] = SK12140, E. coli SK 12140, read-out: MIC in vitro
# [7] = Kleb. pneumo. SK 1200, read-out: MIC in vitro
# [8] = HH127, S. aureus HH 127, read-out: MIC in vitro
# [9] = HH31254, Entero. cloacae HH 31254, read-out: MIC in vitro
# [10] = read-out: MIC in vitro, Kleb. pneumo. SK 1200
# [11] = SK23390, read-out: MIC in vitro
SMILES,MIC (E. coli HH 33779) [µg/mL],MIC (Proteus Morgani 179) [µg/mL],MIC (Pseudo. sp. HH 63) [µg/mL],MIC (S. aureus SK 23390; [3]) [µg/mL],MIC (S. villaluz) [µg/mL],MIC (Salmonella ATCC 12176) [µg/mL],MIC (Serra. marc. ATCC 13880) [µg/mL],MIC (Shigella HH 117) [µg/mL],MIC (Strep. faecalis HH 34358) [µg/mL],ED50 (E. coli 12140; [4]) [mg/kg],ED50 (E. coli 12140; [5]) [mg/kg],MIC (E. coli SK 12140; [6]) [µg/mL],MIC [1] [µg/mL],MIC (Kleb. pneumo. SK 1200; [7]) [µg/mL],MIC (Kleb. pneumo. SK 4200; Kleb. pneumo. SK 4200) [µg/mL],MIC (S. aureus HH 127; [8]) [µg/mL],"ED50 in vivo (Kleb. pneumo. 4200; Kleb. pneumo. 4200, s.c.) [mg/kg]","ED50 (Kleb. pneumo. 4200; po, Kleb. pneumo. 4200, p.o.) [mg/kg]","ED50 (Kleb. pneumo. 4200; sc, Kleb. pneumo. 4200, s.c.) [mg/kg]","MIC (S. aureus HH 127; HH127, read-out: MIC in vitro) [µg/mL]",also measured
"CCOC(=O)c1nn[nH]c1SCC1=C(C(=O)O)N2C(=O)C(NC(=O)[C@H](N)c3ccc(O)cc3)[C@H]2SC1 (stereo partly drawn) [I, 7-(D-α-Amino-4-hydroxyphenylacetamido)-3-(4-carbethoxy-1,2,3-triazol-5-ylthiomethyl)-3-cephem-4-carboxylic acid]",25,> 200,> 200,25,200,12.5,> 200,12.5,200,> 200,100,,,,,,,,,,MIC (Entero. cloacae HH 31254; [2]): 12.5 µg/mL; MIC in vitro (S. aureus SK 23390; S. aureus SK 23390): 13 µg/mL; MIC in vitro (Strep. faecalis HH 34358; Strep. faecalis HH 34358): 100 µg/mL
"CCOC(=O)c1nn[nH]c1SCC1=C(C(=O)O)N2C(=O)C(NC(=O)[C@H](N)c3ccccc3)[C@H]2SC1 (stereo partly drawn) [II, 7-(D-α-Aminophenylacetamido)-3-(4-carbethoxy-1,2,3-triazol-5-ylthiomethyl)-3-cephem-4-carboxylic acid]",50,> 200,,6,100,13,> 200,13,100,,,25,50,50,25,6,,,,,
"CCOC(=O)Cc1nc(SCC2=C(C(=O)O)N3C(=O)C(NC(=O)[C@H](N)c4ccccc4)[C@H]3SC2)n[nH]1 (stereo partly drawn) [III, 7-(D-α-Aminophenylacetamido)-3-(5-carbethoxymethyl-1,2,4-triazol-3-ylthiomethyl)-3-cephem-4-carboxylic acid]",50,> 200,,6,,25,> 200,13,100,78,,50,100,25,25,6,3,50,< 3,,
"NC(=O)c1nn[nH]c1SCC1=C(C(=O)O)N2C(=O)C(NC(=O)[C@H](N)c3ccc(O)cc3)[C@H]2SC1 (stereo partly drawn) [IV, 7-(D-α-Amino-4-hydroxyphenylacetamido)-3-(4-carbamoyl-1,2,3-triazol-5-ylthiomethyl)-3-cephem-4-carboxylic acid]",6,> 200,,3,,1.6,> 200,1.6,25,35,5.2,6,50,1.6,6,3,,8.2,< 3,,
"O=C(O)Cc1nc(SCC2=C(C(=O)O)N3C(=O)C(NC(=O)[C@H](O)c4ccccc4)[C@H]3SC2)n[nH]1 (stereo partly drawn) [IX, 7-D-Mandelamido-3-(5-carboxymethyl-1,2,4-triazol-3-ylthiomethyl)-3-cephem-4-carboxylic acid]",3.1,200,> 200,1.6,,1.6,> 200,0.8,200,41,1,3.1,6.3,,1.6,,< 3,71,1.5,3.1,MIC in vitro (Entero. cloacae HH 31254; Entero. cloacae HH 31254): 1.6 µg/mL; MIC (Entero. cloacae HH 31254; [9]): 3.1 µg/mL; MIC in vitro (Kleb. pneumo. SK 1200; Kleb. pneumo. SK 1200): 0.2 µg/mL; MIC (Kleb. pneumo. SK 1200; [10]): 0.4 µg/mL; MIC in vitro (Serra. marc. ATCC 13880): 200 µg/mL; MIC in vitro (Shigella HH 117; Shigella HH 117): 1.6 µg/mL
"N[C@@H](C(=O)NC1C(=O)N2C(C(=O)O)=C(CSc3[nH]nnc3C(=O)O)CS[C@H]12)c1ccccc1 (stereo partly drawn) [V, 7-(D-α-Aminophenylacetamido)-3-(4-carboxy-1,2,3-triazol-5-ylthiomethyl)-3-cephem-4-carboxylic acid]",25,> 200,> 200,19,200,,> 200,,200,> 200,25,9,25,3.1,,,,> 50,> 50,12.5,"MIC (E. coli SK 12140; SK12140, read-out: MIC in vitro, E. coli SK 12140): 12.5 µg/mL; MIC in vitro (Kleb. pneumo. SK 1200; Kleb. pneumo. SK 1200): 4.7 µg/mL; MIC (S. aureus SK 23390; [11]): 12.5 µg/mL"
"O=C(O)C1=C(CSc2[nH]nnc2C(=O)O)CS[C@@H]2C(NC(=O)[C@H](O)c3ccccc3)C(=O)N12 (stereo partly drawn) [VI, 7-D-Mandelamido-3-(4-carboxy-1,2,3-triazol-5-ylthiomethyl)-3-cephem-4-carboxylic acid]",25,> 200,> 200,,200,12.5,> 200,6.3,> 200,> 200,25,6.3,50,3.1,,,,> 200,86,6.3,MIC (Entero. cloacae HH 31254; [2]): 12.5 µg/mL; MIC (Kleb. pneumo. SK 4200): 12.5 µg/mL; MIC (S. aureus SK 23390; [11]): 3.1 µg/mL
"N[C@@H](C(=O)NC1C(=O)N2C(C(=O)O)=C(CSc3n[nH]c(CC(=O)O)n3)CS[C@H]12)c1ccc(O)cc1 (stereo partly drawn) [VII, 7-(D-α-Amino-4-hydroxyphenylacetamido)-3-(5-carboxymethyl-1,2,4-triazol-3-ylthiomethyl)-3-cephem-4-carboxylic acid]",12.5,> 200,> 200,,> 200,1.6,> 200,6.3,100,> 50,3,3.1,25,,1.6,,,31,1.1,12.5,MIC (Entero. cloacae HH 31254; [9]): 3.1 µg/mL; MIC (Kleb. pneumo. SK 1200; [10]): 6.3 µg/mL; MIC (S. aureus SK 23390; [11]): 12.5 µg/mL
"N[C@@H](C(=O)NC1C(=O)N2C(C(=O)O)=C(CSc3n[nH]c(CC(=O)O)n3)CS[C@H]12)c1ccccc1 (stereo partly drawn) [VIII, 7-(D-α-Aminophenylacetamido)-3-(5-carboxymethyl-1,2,4-triazol-3-ylthiomethyl)-3-cephem-4-carboxylic acid]",6.3,200,> 200,25,,0.8,> 200,3.1,200,> 50,1.1,3.1,6.3,1.6,1.6,,< 0.78,39,0.8,12.5,MIC (Entero. cloacae HH 31254; [9]): 3.1 µg/mL
